According to patent US7732425B2, “Pharmaceutical composition for ophthalmic use” (Kabushiki Kaisha Hayashibara Seibutsu Kagaku Kenkyujo, priority 2000, dated 2010):

Test system: ophthalmologic clinical symptoms and signs of Sjögren syndrome
Assay: Therapeutic experiment with α,α-trehalose eye drops in patients diagnosed with Sjögren syndrome
Assay type: in vivo, human
Excerpt: To confirm the therapeutic effect by trehalose on the ophthalmologic clinical symptoms and signs of Sjögren syndrome, patients consisting of 10 men and 10 women, 22-65 years old (a mean average of 45 years old), who were diagnosed as Sjögren syndrome and had been suffering from clinical symptoms such as foreign body sensation, burning, and itching in their both eyes, were subjected to a therapeutic experiment. In this experiment, a reagent grade of α,α-trehalose with a purity of 99% or higher, commercialized by Hayashibara Biochemical Laboratories, Inc., Okayama, Japan, was dissolved in physiological saline to give a final concentration of 3.5% (w/v) or 7.5% (w/v), and filtered with a 0.22 μm membrane filter to remove bacteria. Then, the filtrate was removed pyrogen in a usual manner for a test preparation. As a control, a similar preparation was provided except for not dissolving α,α-trehalose therein. The 3.5% (w/v) α,α-trehalose solution was administered to one eye for each one of 5-male and 5-female patients, while the physiological saline as a control was administered to the other eye for each one of the patients. The administrations were conducted at four times (getting up, daytime, evening, and before sleeping) a day and at a dose of two to three drops (a volume of about 0.05 to about 0.075 ml) per shot for four weeks. Before and after this experiment, the patients were asked to grade the symptoms of foreign body sensation, burning, and itching in their eyes. Using the 7.5% (w/v) α,α-trehalose solution, a similar experiment was conducted with the remaining male and female patients, five each.

[1] = patients with Sjögren syndrome, 3.5% or 7.5% (w/v) solution, four times a day for four weeks

Compound: OC[C@H]1O[C@H](O[C@H]2O[C@H](CO)[C@@H](O)[C@H](O)[C@H]2O)[C@H](O)[C@@H](O)[C@@H]1O [α,α-trehalose]
- duration of therapeutic effect after end of administration (after completion of the four-week experiment): lasted for some days even after the completion of this experiment
- exacerbation of the ophthalmologic clinical symptoms and signs in the treated eyes (all twenty patients, during and after completion of the four-week experiment): no exacerbation
- improvement or remission of the subjective ophthalmic symptoms of foreign body sensation, burning, and itching (patients with Sjögren syndrome, 3.5% (w/v) or 7.5% (w/v) solution in physiological saline, one eye, 2-3 drops four times a day for four weeks, other eye saline control): nine out of ten patients
- corneal and conjunctival erosions stained by fluorescein and rose bengal (objective sign) [1]: reduced in all the ten patients
- tear film break-up time (objective sign) [1]: improved in nine out of ten patients
